Test systems include 786-0 renal; A498 renal; HCC-2998 colon; M14 melanoma; NCI-H23 lung; NCI-H522 lung; OVCAR-3 ovarian; OVCAR-5 ovarian; SNB-75 CNS; UACC-62 melanoma.
Assay in all cases: NCI-60 cell line screen, 48 h

Several values for one entry are separate records, joined by “and”; a condition that tells them apart may be missing. Equal values may be shown once.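 How tested: cells in 96-well plates exposed to compound for 48 hours at five concentrations. Here, GI50 denotes the concentration required for 50% inhibition of growth. TGI is the concentration that stops growth completely.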

In the case of `COc1ccc(C[C@H](N)C(=O)N[C@@H]2[C@@H](CO)OC(n3cnc4c(N(C)C)ncnc43)[C@@H]2O)cc1` (stereo partly specified), the TGI in the assay on 786-0 renal turned out to be 1.24 µM; in the assay with A498 renal, 1.09 µM; in the assay with HCC-2998 colon, 1.31 µM; with M14 melanoma, 1.4 µM; with NCI-H23 lung, 1.82 µM; with NCI-H522 lung, 0.493 µM. Further, the TGI with OVCAR-3 ovarian was determined as 0.535 µM; in the assay with OVCAR-5 ovarian, 2.94 µM; in the assay on SNB-75 CNS it was 1.23 µM; in the assay on UACC-62 melanoma, 1.06 µM. The GI50 is 0.189 µM with A498 renal; 0.651 µM in the assay on HCC-2998 colon; 0.647 µM with M14 melanoma; 0.553 µM in the assay with NCI-H23 lung; 0.126 µM in the assay on NCI-H522 lung; 1.14 µM with OVCAR-5 ovarian. Further, the GI50 is 0.143 µM in the assay with SNB-75 CNS and 0.404 µM in the assay on UACC-62 melanoma.
Take `CC(=O)OCC1OC(OC(C)=O)C(NC#N)C(OC(C)=O)C1OC(C)=O` (stereo unspecified): the TGI in the assay with 786-0 renal, with A498 renal, in the assay with HCC-2998 colon, in the assay with M14 melanoma, in the assay with NCI-H23 lung and in the assay with NCI-H522 lung was more than 100 µM throughout. The TGI in the assay with OVCAR-3 ovarian, in the assay with OVCAR-5 ovarian, in the assay with SNB-75 CNS and in the assay with UACC-62 melanoma was more than 100 µM in each case.
As to `N#Cc1c(N)nc(N2CCOCC2)c(C#N)c1-c1ccc(Cl)cc1Cl`, the GI50 in the assay on 786-0 renal was 19.5 µM; in the assay on A498 renal it was 2.68 µM; with HCC-2998 colon, 13.3 µM; in the assay on M14 melanoma, 18.3 µM; with NCI-H23 lung it was 19.7 µM; with NCI-H522 lung, 4.77 µM. Besides, the GI50 in the assay with OVCAR-3 ovarian is 13.7 µM; in the assay with OVCAR-5 ovarian, 23.1 µM; in the assay with SNB-75 CNS, 6.31 µM; with UACC-62 melanoma it was 10.8 µM. The TGI was found to be 44.8 µM in the assay with 786-0 renal; 11.1 µM with A498 renal; 28.2 µM in the assay with HCC-2998 colon; 42 µM in the assay with M14 melanoma; 48.4 µM in the assay on NCI-H23 lung; 18.4 µM in the assay with NCI-H522 lung. Besides, the TGI with OVCAR-3 ovarian stood at 41.3 µM; with OVCAR-5 ovarian, 71.2 µM; in the assay with SNB-75 CNS it was 30.4 µM; in the assay with UACC-62 melanoma, 28.8 µM.
Regarding `CS(=O)(=O)Nc1ccc(Nc2c3ccccc3nc3cc(Cl)ccc23)cc1`, the GI50 is 0.857 µM in the assay with 786-0 renal; 1.15 µM with A498 renal; 7.57 µM with HCC-2998 colon; 0.812 µM in the assay with M14 melanoma; 1.67 µM with NCI-H23 lung; 2.33 µM in the assay with NCI-H522 lung. Moreover, the GI50 with OVCAR-3 ovarian was 7.28 µM; in the assay on OVCAR-5 ovarian, 4.99 µM; in the assay on SNB-75 CNS it was 1.29 µM; in the assay on UACC-62 melanoma it was 0.988 µM. Further, the TGI stood at 15.6 µM with 786-0 renal; 7.22 µM in the assay on A498 renal; 22.9 µM with HCC-2998 colon; 15.1 µM in the assay with M14 melanoma; 18.9 µM in the assay on NCI-H23 lung; 15.4 µM in the assay with NCI-H522 lung. In addition, the TGI with OVCAR-3 ovarian came to 21.5 µM; with OVCAR-5 ovarian, 22.3 µM; in the assay on SNB-75 CNS, 15.9 µM; in the assay on UACC-62 melanoma, 12.9 µM.
As to `Cc1c(N)nc(C2CC(=O)N2CC(N)C(N)=O)nc1C(=O)NC(C(=O)NC(C)C(O)C(C)C(=O)NC(C(=O)NCCc1nc(-c2nc(C(=O)NCCNCC(C)O)cs2)cs1)C(C)O)C(OC1OC(CO)C(O)C(O)C1OC1OC(CO)C(O)C(OC(N)=O)C1O)c1cnc[nH]1` (stereo unspecified), the GI50 in the assay with 786-0 renal was 2.3 µM; in the assay on M14 melanoma, 7.91 µM; in the assay with NCI-H23 lung, 1.06 µM; in the assay on NCI-H522 lung it was 0.972 µM; in the assay on OVCAR-3 ovarian, 1.63 µM; with OVCAR-5 ovarian, 9.82 µM. The values for the GI50 with SNB-75 CNS and in the assay on UACC-62 melanoma were 3.06 µM and 0.756 µM, respectively. For the same compound, the TGI in the assay with 786-0 renal was 50 µM and 36.8 µM; in the assay with A498 renal, more than 46.6 µM; in the assay with HCC-2998 colon, more than 100 µM; with M14 melanoma, 50 µM and 23.8 µM; with NCI-H23 lung, 16.3 µM and 8.81 µM; in the assay on NCI-H522 lung it was 10.8 µM and 7.89 µM. The TGI is 20.6 µM and > 55 µM in the assay on OVCAR-3 ovarian; 50 µM and 57.4 µM in the assay on OVCAR-5 ovarian; 23.9 µM and 6.66 µM in the assay on SNB-75 CNS; 6.43 µM and 7.31 µM with UACC-62 melanoma.
For `OCCn1c(-c2ccncc2)c(-c2ccc(F)cc2)c2ncccc21`, the GI50 is more than 25 µM with 786-0 renal; more than 20.3 µM in the assay with A498 renal; more than 25 µM in the assay with HCC-2998 colon; more than 25 µM in the assay with M14 melanoma; more than 25 µM with NCI-H23 lung; more than 25 µM with NCI-H522 lung. For the same compound, the GI50 in the assay on OVCAR-3 ovarian, with OVCAR-5 ovarian, with SNB-75 CNS and with UACC-62 melanoma was more than 25 µM in each case. In addition, the TGI with 786-0 renal, in the assay with A498 renal, in the assay with HCC-2998 colon, in the assay with M14 melanoma, with NCI-H23 lung and with NCI-H522 lung was more than 25 µM each time. The TGI in the assay on OVCAR-3 ovarian, with OVCAR-5 ovarian, in the assay with SNB-75 CNS and in the assay on UACC-62 melanoma was more than 25 µM in each case.
In the case of `c1csc(-c2[nH]nc3c2CCc2ccccc2-3)c1`, the GI50 with 786-0 renal was 21.3 µM; in the assay on A498 renal, 14.3 µM; in the assay on HCC-2998 colon, 1.15 µM; in the assay with M14 melanoma, 17.8 µM; in the assay on NCI-H23 lung, 16.1 µM; in the assay on NCI-H522 lung, 18.9 µM. Moreover, the GI50 was 3.35 µM with OVCAR-3 ovarian, 0.959 µM in the assay on OVCAR-5 ovarian, 4.25 µM in the assay with SNB-75 CNS and 13.6 µM with UACC-62 melanoma. The TGI in the assay on 786-0 renal was determined as 51 µM; in the assay with A498 renal, 32.4 µM; in the assay on HCC-2998 colon it was 28.6 µM; in the assay on M14 melanoma it was 38 µM; with NCI-H23 lung it was 42.9 µM; in the assay on NCI-H522 lung, 44.9 µM. Also, the TGI is 19.7 µM with OVCAR-3 ovarian, 32.4 µM in the assay with OVCAR-5 ovarian, 35 µM in the assay with SNB-75 CNS and 27.8 µM with UACC-62 melanoma.
On to `CCNc1nc(-c2ccc(Cl)c(OC)c2)c(-c2ccnc(NCCNS(=O)(=O)c3ccc(Cl)cc3)n2)s1`, for which the GI50 was 3.46 µM in the assay on 786-0 renal; 1.5 µM in the assay with A498 renal; 4.97 µM in the assay with HCC-2998 colon; 3.82 µM in the assay on M14 melanoma; 3.5 µM in the assay with NCI-H23 lung; 1.92 µM in the assay with NCI-H522 lung. The GI50 in the assay on OVCAR-3 ovarian was 2.45 µM; in the assay with OVCAR-5 ovarian it was 3.67 µM; in the assay on SNB-75 CNS, 2.35 µM; in the assay on UACC-62 melanoma, 2.11 µM. The TGI in the assay with 786-0 renal is 13.9 µM; in the assay on A498 renal it was 6.52 µM; in the assay with HCC-2998 colon it was more than 100 µM; with M14 melanoma, more than 100 µM; in the assay with NCI-H23 lung, more than 100 µM; with NCI-H522 lung, 4.35 µM. Further, the TGI is 5.27 µM in the assay on OVCAR-3 ovarian, more than 100 µM in the assay on OVCAR-5 ovarian, 29.8 µM with SNB-75 CNS and 5.49 µM in the assay with UACC-62 melanoma.
Consider `CN1C/C(=C\c2ccco2)c2nc(N)nc(-c3ccco3)c2C1`, for which the TGI in the assay with 786-0 renal, in the assay with A498 renal, in the assay on HCC-2998 colon, in the assay with M14 melanoma, with NCI-H23 lung and in the assay with NCI-H522 lung was more than 100 µM in each case. The TGI in the assay with OVCAR-3 ovarian, with OVCAR-5 ovarian, with SNB-75 CNS and with UACC-62 melanoma was more than 100 µM in each case.
Take `Cc1c(C(=O)C/C(=N/NC(=O)CC#N)C(N)=O)[n+](=O)c2ccccc2n1[O-]`: the TGI is more than 100 µM in the assay on 786-0 renal; more than 100 µM in the assay on A498 renal; more than 100 µM in the assay with HCC-2998 colon; more than 100 µM in the assay on M14 melanoma; more than 100 µM with NCI-H23 lung; 51.6 µM with NCI-H522 lung. In addition, the TGI in the assay with OVCAR-3 ovarian is 61.8 µM; with OVCAR-5 ovarian it was more than 100 µM; with SNB-75 CNS it was more than 100 µM; in the assay with UACC-62 melanoma it was more than 100 µM.
As for `O=NNc1nc(-c2ccccn2)nc2ccccc12`, the TGI in the assay with 786-0 renal is 39.9 µM; with A498 renal it was more than 100 µM; in the assay with HCC-2998 colon, 41 µM; in the assay on M14 melanoma, 22 µM; in the assay with NCI-H23 lung, more than 100 µM; in the assay with NCI-H522 lung it was 9.21 µM. For the same compound, the TGI with OVCAR-3 ovarian was more than 100 µM; in the assay with OVCAR-5 ovarian it was more than 100 µM; in the assay with SNB-75 CNS it was more than 100 µM; with UACC-62 melanoma, 65 µM.
Consider `CN1CCN(Cc2ccc(NC(=O)c3cncc(C#Cc4cnc5cccnn45)c3)cc2C(F)(F)F)CC1`, for which the GI50 in the assay with 786-0 renal was 1.14 µM; in the assay with A498 renal, 0.907 µM; with HCC-2998 colon it was 1.31 µM; with M14 melanoma, 1.02 µM; in the assay with NCI-H23 lung, 0.892 µM; with NCI-H522 lung it was 0.99 µM. Besides, the GI50 in the assay with OVCAR-3 ovarian is 1.76 µM; in the assay with OVCAR-5 ovarian, 1.27 µM; in the assay on SNB-75 CNS, 0.914 µM; in the assay on UACC-62 melanoma, 1.33 µM. For the same compound, the TGI was determined as 2.73 µM with 786-0 renal; 1.86 µM with A498 renal; 4.24 µM with HCC-2998 colon; 3.34 µM in the assay on M14 melanoma; 2.32 µM in the assay with NCI-H23 lung; 2.72 µM in the assay on NCI-H522 lung. For the same compound, the TGI is 5.5 µM in the assay with OVCAR-3 ovarian, 6.04 µM in the assay on OVCAR-5 ovarian, 1.88 µM in the assay with SNB-75 CNS and 4.46 µM in the assay with UACC-62 melanoma.
`CCOC(=O)C1=C(O)c2c(OC)ccc(OC)c2C(=O)C1=O`: the TGI in the assay on 786-0 renal, with A498 renal, in the assay with HCC-2998 colon, with M14 melanoma, in the assay on NCI-H23 lung and in the assay with NCI-H522 lung was more than 100 µM throughout. The TGI with OVCAR-3 ovarian, in the assay with OVCAR-5 ovarian, in the assay on SNB-75 CNS and with UACC-62 melanoma was more than 100 µM each time.

Values taken from PubChem BioAssay (NCI).
